Data set [1] is described as follows: Human hepatocyte stability, in vitro h-Hept CLpredict. It is filed as in vitro ADME. Particulars: cryopreserved hepatocytes, predicted hepatic clearance, cells without asterisk, read-out: hHep Cl. Put shortly:
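Cryopreserved human hepatocytes at 0.5×10^6 viable cells/mL in William's E medium, compound added from 100 μM solution, sampled 0–120 min in duplicate with LC/MS/MS quantitation. t1/2 from parent disappearance converted to CLint, then scaled to predicted hepatic clearance (well-stirred model, fub assumed 1) and extraction ratio.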

Data set [2] deals with T1, wt human LRRK2, catalytic site (Homo sapiens, UniProt Q5S007).
T1 construct: wt human LRRK2, catalytic site, catalytic site (ThermoFisher/USA); purchased ThermoFisher
T1 sequence (Q5S007 1879-2138 limits assumed): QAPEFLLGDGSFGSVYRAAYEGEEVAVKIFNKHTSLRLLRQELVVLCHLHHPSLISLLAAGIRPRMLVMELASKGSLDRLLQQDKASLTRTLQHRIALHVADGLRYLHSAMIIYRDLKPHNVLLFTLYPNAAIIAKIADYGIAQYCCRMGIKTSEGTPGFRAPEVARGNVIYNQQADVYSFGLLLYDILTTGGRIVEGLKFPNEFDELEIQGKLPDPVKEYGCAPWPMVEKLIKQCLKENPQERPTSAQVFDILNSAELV
Nature of the data set: TR-FRET LanthaScreen Tb Kinase Activity Assay, LRRK2 kinase inhibition. It is filed as biochemical. The conditions noted are these: 2 nM wt human LRRK2, 400 nM peptide, 38 μM ATP. Put shortly: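 TR-FRET LanthaScreen format: 2 nM wt human LRRK2 catalytic domain with 400 nM fluorescein-ERM (LRRKtide) and 38 μM ATP in Kinase Buffer A, after 15 min compound preincubation. Reaction 120 min at RT, then EDTA plus Tb-anti-pLRRKtide antibody for 60 min; emission ratios analysed per kit protocol.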
(In general: In TR-FRET formats the signal depends on donor and acceptor labels being close together.)

As usually defined, the IC50 is the point on the concentration scale where inhibition reaches its midpoint. Low values mean inhibition by little substance, high ones a need for much substance.

`Cc1n[nH]c2c1N=C(c1c(F)cccc1F)Nc1c-2cc(N2CCOCC2)nc1C` [Example 8, 4-[8-(2,6-difluorophenyl)-5,11-dimethyl-3,4,7,9,12-pentazatricyclo[8.4.0.02,6]tetradeca-1(10),2(6),4,7,11,13-hexaen-13-yl]morpholine]: the CLhep predicted at 1 µM in data set [1] was 0.378 to 0.882 L/h/kg. This compound also showed an IC50 in data set [2] of less than 2 nM.

Consider `Cc1n[nH]c2c1N=C(c1c(F)cccc1F)Nc1c(F)cc(N3CCOCC3)cc1-2` [Example 30, 4-(5-(2,6-difluorophenyl)-7-fluoro-3-methyl-1,6-dihydrobenzo[d]pyrazolo[3,4-f][1,3]diazepin-9-yl)morpholine], for which the CLhep predicted at 1 µM in data set [1] is 0.378 to 0.882 L/h/kg. In data set [2], this compound showed an IC50 of less than 2 nM.

For the compound `Cc1n[nH]c2c1N=C(c1c(F)cccc1F)Nc1c-2cc(N2CCN(CC(C)F)CC2)nc1C` (racemic) [Example 20, 8-(2,6-difluorophenyl)-13-[4-(2-fluoropropyl)piperazin-1-yl]-5,11-dimethyl-3,4,7,9,12-pentazatricyclo[8.4.0.02,6]tetradeca-1(10),2(6),4,7,11,13-hexaene], in data set [1], the CLhep predicted at 1 µM was less than 0.378 L/h/kg. In addition, the IC50 in data set [2] was less than 2 nM.

As for `[2H]C([2H])([2H])c1n[nH]c2c1N=C(c1c(F)cccc1F)Nc1ccc(N3CCOCC3)cc1-2` [Example 33, 4-[5-(2,6-difluorophenyl)-3-(trideuteriomethyl)-1,6-dihydropyrazolo[4,3-d][1,3]benzodiazepin-9-yl]morpholine], the CLhep predicted at 1 µM in data set [1] was less than 0.378 L/h/kg. In addition, in data set [2], the 50% inhibitory concentration (IC50) was less than 2 nM.

`Cc1n[nH]c2c1N=C(c1c(F)cccc1F)Nc1c-2cc(N2CCN(CC(C)(C)F)CC2)nc1C` [Example 5, 5-(2,6-difluorophenyl)-9-(4-(2-fluoro-2-methylpropyl)piperazin-1-yl)-3,7-dimethyl-1,6-dihydropyrazolo[4,3-d]pyrido[4,3-f][1,3]diazepine]: the CLhep predicted at 1 µM in data set [1] was 0.378 to 0.882 L/h/kg. This compound had an IC50 in data set [2] of less than 2 nM.

`Cc1n[nH]c2c1N=C(c1c(F)cccc1F)N1CCc3nc(N4CCOCC4)cc-2c31` [Example 42, 4-[8-(2,6-difluorophenyl)-5-methyl-3,4,7,9,13-pentazatetracyclo[7.6.1.02,6.012,16]hexadeca-1(16),2(6),4,7,12,14-hexaen-14-yl]morpholine]: in data set [1], the CLhep predicted at 1 µM was 0.378 to 0.882 L/h/kg. This compound gave an IC50 in data set [2] of less than 2 nM.

Turning to `Fc1cccc(F)c1C1=Nc2c(C(F)F)n[nH]c2-c2cc(N3CCOCC3)ncc2N1` [Example 10, 4-[5-(difluoromethyl)-8-(2,6-difluorophenyl)-3,4,7,9,12-pentazatricyclo[8.4.0.02,6]tetradeca-1(10),2(6),4,7,11,13-hexaen-13-yl]morpholine], the CLhep predicted at 1 µM in data set [1] was 0.378 to 0.882 L/h/kg. Further, the concentration for half-maximal inhibition (IC50) in data set [2] is less than 2 nM.

For `Cc1n[nH]c2c1N=C(c1c(F)cccc1F)Nc1cnc(C#CC3(C)CCOCC3)cc1-2` [Example 17, 8-(2,6-difluorophenyl)-5-methyl-13-[2-(4-methyltetrahydropyran-4-yl)ethynyl]-3,4,7,9,12-pentazatricyclo[8.4.0.02,6]tetradeca-1(10),2(6),4,7,11,13-hexaene], in data set [1], the CLhep predicted at 1 µM was more than 0.882 L/h/kg. The same compound came in with a concentration for half-maximal inhibition (IC50) in data set [2] of less than 2 nM.

As for `CCc1n[nH]c2c1N=C(c1c(F)cccc1F)Nc1cnc(N3CCOCC3)cc1-2` [Example 31, 4-[8-(2,6-difluorophenyl)-5-ethyl-3,4,7,9,12-pentazatricyclo[8.4.0.02,6]tetradeca-1(10),2(6),4,7,11,13-hexaen-13-yl]morpholine], the CLhep predicted at 1 µM in data set [1] is less than 0.378 L/h/kg. In addition, in data set [2], the half-maximal inhibitory concentration (IC50) was in the range of 2 to 100 nM.

As for `Cc1n[nH]c2c1N=C(c1c(F)cccc1F)Nc1cnc(-c3cnn(C(F)F)c3)cc1-2` [Example 1, 9-(1-(difluoromethyl)-1H-pyrazol-4-yl)-5-(2,6-difluorophenyl)-3-methyl-1,6-dihydropyrazolo[4,3-d]pyrido[4,3-f][1,3]diazepine], the CLhep predicted at 1 µM in data set [1] is less than 0.378 L/h/kg. In data set [2], this compound had a 50% inhibitory concentration (IC50) of less than 2 nM.

The values above are taken from patent publication US20240208972A1, “LRRK2 INHIBITORS AND USES THEREOF” (NEURON23, INC., priority 2022, published 2024).
